Assay [1] has as its system putative mAR in A172 human glioblastoma cells. The conditions noted are these: unlabeled DHT as displacer, relative to T-BSA incubated A172 cells.
Description: The population histograms depict the frequency distribution of the cells labeled with a fluorescently tagged, BSA-conjugated testosterone (Testosterone-BSA-FITC, abbreviated as T-BSA), or T-BSA in the presence of unlabeled DHT, serving as the “displacer”. […] Also note that the x-axis is on a log scale.
Assay [2] has as its system A172 human glioblastoma cell line. Put plainly: cells. As to conditions: A 172, read-out: reduction in cell viability (calcein fluorescence).
In assay [3] the test system is hippocampal HT-22 cells. The experiment in a line: glutamate-induced cytotoxicity, Calcein-am assay. Type of assay: cell-based.
Assay [4] has as its system C6 glioma cells. The experiment in a line: salinomycin sensitivity, cell viability by Calcein-am assay. Type of assay: cell-based. The conditions noted are these: 10 microM TBSA, 48 hrs, leftward shift of the concentration response. Here is the method:
C6 glioma cells were treated with increasing concentrations of the cancer therapeutic, salinamycin, a drug with a high profile of selectivity for cancer stem cells. […] The data are presented as a percentage of cell viability seen in non-TBSA/salinamycin treated cells. The group labeled as Triton-X serves as our cell death-inducing control.

The subject of assay [5] is A172 human glioblastoma cells. The experiment in a line: sensitivity to ionizing radiation, Calcein-am assay. The format is cell-based. As to conditions: total dose of 5 Gy at 6.3 Gy/min, 6 hrs after radiation. How it is done: Cell viability was measured using the Calcein-am assay following 6 hrs after the administration of the dose of ionizing radiation. The data are presented as a percentage of cell viability seen in the non-radiated (black bars) or radiated (checkered bars) in the absence of T-BSA.

Assay [6] deals with Temozolomide-resistant T98g human glioblastoma cells. The assay is described as above. Type of assay: cell-based.

In the case of `C[C@]12CCC(=O)C[C@@H]1CC[C@@H]1[C@@H]2CC[C@]2(C)[C@@H](O)CC[C@@H]12` [DHT, Dihydrotestosterone], the “displacement of Testosterone-BSA-FITC (T-BSA) binding, fluorescence intensity” value in assay [1] is reported as “clear leftward shift of fluorescence intensity”.
Consider `Cn1nnc2c(C(N)=O)ncn2c1=O` [TMZ, Temozolomide], for which the cytotoxicity at 5000 µM in assay [2] is about 35%.
For the compound “TBSA: BSA-conjugated testosterone, membrane impermeable androgen, ligand/activator of the membrane androgen receptor (mAR)”, the “cell viability, by itself” value in assay [3] (TBSA alone, Calcein-am assay) was “had no effect on cell viability”. Also, the “effect on glutamate-induced cell death” value in assay [3] (TBSA plus glutamate) is recorded as “protected against glutamate-induced cytotoxicity”. The “effect on sensitivity to salinamycin (concentration response of cell viability)” value in assay [4] is “increased the sensitivity of the cells to salinamycin”. Besides, the “sensitization to ionizing radiation (cell viability)” value in assay [5] is reported as “enhanced the sensitivity of the A172 glioblastoma cells to the cytotoxic effects of ionizing radiation”; in assay [6] (5 Gy, 100 nM-40 microM TBSA, 6 hr or 24 hr post radiation), “ineffective at sensitizing the cells to ionizing radiation”; in assay [6] (10 Gy), “effective at sensitizing these cells to ionizing radiation”. Besides, the “lowest concentration at which the sensitizing effect was noted” value in assay [6] (20 Gy) is 1 µM.

The values above are taken from patent US20120040914A1, “ENHANCING EFFECTIVENESS OF GLIAL CANCER THERAPIES” (priority 2010, published 2012).
